Measured values: patent US8883426B2, “Use of therapeutically effective lipids and method for producing organ-/tissue-specific therapeutically effective lipids” (PAT GmbH, priority 2005, dated 2014)

How the values were obtained:
[1] = tested on: HepG2-cells (hepatocytes); assay: Selective enrichment of fluorescence-marked conjugate in HepG2-cells, fluorescence microscopy; format: cell-based; conditions: 50 uM, 37° C., 10 min., washed, treated with 5% beef-serum albumin
Procedure: In order to control the selective enrichment of the LysoPE-DOCA-compound HepG2-cells (hepatocytes) were incubated at 37° C. with a fluorescence-marked ursodeoxycholate-1-palmitoyl, 2-NBD-PE-conjugate (at 50 uM) for 10 min., washed, and subsequently treated with 5% beef-serum albumin in order to remove the conjugate from the exterior plasma membrane of the cells. Subsequently the cells are microscopic controlled in phase contrast and in fluorescent light.

colitis ulcerosa = conditions: cited from earlier work
colon mucosa = conditions: topic application, rat models, colitis induced by acetic acid and trinitro-benzosulfonic acid; cited from earlier work
[2] = oral, retarding packaged form, compared to placebo control group

Row | Substance | enrichment in the cells under fluorescent-microscopic observation [1] | inflammatory activity of colitis ulcerosa (colitis ulcerosa; oral, retarding packaged form with release in the lower small intestine and the colon) | improvement of the clinical activity on average (colitis ulcerosa; [2]) [%] | patients treated in whom the improvement of clinical activity was achieved (colitis ulcerosa; [2]) [%] | patients reaching clinical remission (colitis ulcerosa; within three months) | protection of colon mucosa from induced colitis (colon mucosa)
1 | ursodeoxycholate-1-palmitoyl, 2-NBD-PE-conjugate | intense yellow-green coloration in the cytoplasm but not in the core of the cell |  |  |  |  | 
2 | phosphatidyl choline |  | significantly suppresses the inflammatory activity | 70 | 90 | more than half of the patients reached even clinical remission | protecting colon mucosa from colitis
